BindingDB's records for doi:10.1016/j.ejmech.2019.05.051 (Zhejiang Academy of Medical Sciences, 2019)

experiment: Inhibition of rat brain cortex AChE using acetylthiocholine iodide as substrate incubated for 15 mins by spectrophotometry

Compound	IC50 [µM]
CCN(C)C(=O)Oc1cc(C(C)N(C)C)cc2cccnc12 (stereo not given)	1.2
CCN(CC)C(=O)Oc1cc(C(C)N(C)C)cc2cccnc12 (stereo not given)	13.6
CC(c1cc(OC(=O)N2CCCCC2)c2ncccc2c1)N(C)C (stereo not given)	20.6
CC(c1cc(OC(=O)N(C)C)c2ncccc2c1)N1CCOCC1 (stereo not given)	69.9
CC(c1cc(OC(=O)N2CCCC2)c2ncccc2c1)N1CCOCC1 (stereo not given)	48.6
CC(c1cc(OC(=O)N2CCOCC2)c2ncccc2c1)N1CCOCC1 (stereo not given)	8.3
CCN(C)C(=O)Oc1cc(C(C)N(CC)CC)cc2cccnc12 (stereo not given)	41.2
CCN(C)C(=O)Oc1cc(C(C)N2CCCCC2)cc2cccnc12 (stereo not given)	29
CCN(C)C(=O)Oc1cc(C(C)N2CCN(C)CC2)cc2cccnc12 (stereo not given)	54.7
CCN(C)C(=O)Oc1cc(C(C)N2CCCC2)cc2cccnc12 (stereo not given)	18.1
CC(c1cc(OC(=O)N2CCCC2)c2ncccc2c1)N(C)C (stereo not given)	28.6
CC(c1cc(OC(=O)N(C)C)c2ncccc2c1)N(C)C (stereo not given)	16.3
CC(c1cc(OC(=O)N2CCOCC2)c2ncccc2c1)N(C)C (stereo not given)	8.8
CCN(C)C(=O)Oc1cc(C(C)N(C)CC)cc2cccnc12 (stereo not given)	40.7
CCN(C)C(=O)Oc1cccc([C@H](C)N(C)C)c1 [2,3-dihydroxybutanedioic acid; 3-[(1S)-1-(dimethylamino)ethyl]phenyl N-ethyl-N-methylcarbamate]	9
